The record followed here is ChEMBL document CHEMBL4152336, “Optimization of the first small-molecule relaxin/insulin-like family peptide receptor (RXFP1) agonists: Activation results in an antifibrotic gene expression profile” (Eur J Med Chem, 2018).

Data set [1] has as its system Mus musculus. The data set is described as follows: Toxicity in C57/BL6 mouse assessed as mouse death at 90 to 3000 mg/kg, po treated for 5 days measured at day 5 post last dose. In kind it is organism-based. The following applies: in vivo, 120 h.
The test system of data set [2] is Mus musculus. The data set can be described thus: Toxicity in C57/BL6 mouse assessed as abnormal behavior at 3 to 30 mg/kg, po. It is filed as organism-based. The conditions noted are these: in vivo.
The nature of data set [3]: Drug level in C57/BL6 mouse heart at 30 mg/kg, po after 24 hrs. It is filed as ADME, organism-based. The conditions noted are these: in vivo, BLD = below limit of detection.
Data set [4] concerns Mus musculus. The data set can be described thus: Toxicity in C57/BL6 mouse assessed as body weight at 300 mg/kg, po treated for 5 days measured at day 8 post last dose (reference value: 20.6 +/- 2.8 g). In kind it is organism-based. The conditions noted are these: in vivo, 120 h.
Data set [5] has as its system Mus musculus. The data set can be described thus: Toxicity in C57/BL6 mouse assessed as body weight at 300 mg/kg, po treated for 5 days measured at day 9 post last dose (reference value: 20.7 +/- 2.9 g). It is filed as organism-based. The following applies: in vivo, 120 h.
Data set [6] can be described thus: Drug level in C57/BL6 mouse heart at 30 mg/kg, po after 3 hrs. It is filed as ADME, organism-based. The following applies: in vivo.
Data set [7] can be described thus: Drug level in C57/BL6 mouse heart at 30 mg/kg, po after 5 hrs. The following applies: in vivo. In kind it is ADME, organism-based.
Data set [8] can be described thus: Drug level in C57/BL6 mouse heart at 30 mg/kg, po after 0.5 hrs. The conditions noted are these: in vivo. It is filed as ADME, organism-based.
Data set [9] is described as follows: Drug level in C57/BL6 mouse heart at 30 mg/kg, po after 1 hr. It is filed as ADME, organism-based. The conditions noted are these: in vivo.
In data set [10] the test system is Mus musculus. The data set can be described thus: Toxicity in C57/BL6 mouse assessed as body weight at 300 mg/kg, po treated for 5 days measured at day 3 post last dose (reference value: 19.8 +/- 2.5 g). It is filed as organism-based. The following applies: in vivo, 120 h.
In data set [11] the test system is Mus musculus. The data set is described as follows: Toxicity in C57/BL6 mouse assessed as body weight at 300 mg/kg, po treated for 5 days measured at day 5 post last dose (reference value: 20.3 +/- 2.8 g). The conditions noted are these: in vivo, 120 h. It is filed as organism-based.
For data set [12], the system named is Mus musculus. The data set can be described thus: Toxicity in C57/BL6 mouse assessed as body weight at 300 mg/kg, po treated for 5 days measured at day 1 post last dose (reference value: 20.3 +/- 2.6 g). The following applies: in vivo, 120 h. In kind it is organism-based.
Data set [13] deals with Mus musculus. The data set can be described thus: Toxicity in C57/BL6 mouse assessed as body weight at 3000 mg/kg, po treated for 5 days measured at day 7 post last dose (reference value: 20.6 +/- 2.9 g). In kind it is organism-based. The conditions noted are these: in vivo, 120 h.
The test system of data set [14] is Mus musculus. The data set can be described thus: Toxicity in C57/BL6 mouse assessed as body weight at 3000 mg/kg, po treated for 5 days measured at day 1 post last dose (reference value: 20.3 +/- 2.6 g). In kind it is organism-based. The conditions noted are these: in vivo, 120 h.
Data set [15] concerns Mus musculus. The data set is described as follows: Toxicity in C57/BL6 mouse assessed as body weight at 300 mg/kg, po treated for 5 days measured at day 10 post last dose (reference value: 20.7 +/- 2.6 g). It is filed as organism-based. The conditions noted are these: in vivo, 120 h.
Data set [16] can be described thus: Drug level in C57/BL6 mouse heart at 30 mg/kg, po after 0.17 hrs. It is filed as ADME, organism-based. The conditions noted are these: in vivo.
Data set [17] relates to Mus musculus. The data set is described as follows: Toxicity in C57/BL6 mouse assessed as body weight at 90 mg/kg, po treated for 5 days measured at day 1 post last dose (reference value: 20.3 +/- 2.6 g). The following applies: in vivo, 120 h. It is filed as organism-based.

For the compound `CC(C)Oc1ccccc1C(=O)Nc1ccccc1C(=O)Nc1cccc(S(=O)(=O)C(F)(F)F)c1`, the Activity result is listed as “Non-Toxic” in the data set on Mus musculus [1]; “Non-Toxic” with Mus musculus [2]; 21.2 g in the data set on Mus musculus [4]; 21 g with Mus musculus [5]; 20.4 g with Mus musculus [10]; 20.6 g in the data set with Mus musculus [11]. Also, the Activity is 20.4 g in the data set on Mus musculus [12]; 21.2 g in the data set on Mus musculus [13]; 20.6 g in the data set on Mus musculus [14]; 21.3 g in the data set with Mus musculus [15]; 19.9 g in the data set on Mus musculus [17]. Moreover, the Drug uptake entry in [3] was “Bld”; in data set [6] it was 0.995 µmol/kg; in [7], 0.256 µmol/kg; in data set [8] it was 1.428 µmol/kg; in data set [9], 1.041 µmol/kg; in data set [16], 0.926 µmol/kg.
